# Test results taken from patent US10040804B2, “Compounds targeting proteins, compositions, methods, and uses thereof” (BioTheryX, Inc., priority 2016, dated 2018).
# What was measured:
# MDA-MB-231 cells = experiment: MDA-MB-231 cell viability (CellTiter-Glo); assay type: cell-based; details: Homo sapiens, 72 h, 3 days, DMSO = 100.00; for viability at 1 µM: 1 μM compound concentration; for viability at 10 µM: 10 μM compound concentration
# Procedure: (§1) Molm-13 cells were cultivated in RPMI-1640 (10% FBS/1% pen-strep) and were plated in white walled 96-well plates at 20,000 cells/well. H1048 cells were cultured in DMEM:F12 media supplemented with 5% fetal bovine serum, insulin, transferrin, sodium selenite, hydrocortisone, β-estradiol, penicillin and streptomycin, and were plated in white walled 96-well plates at 20,000 cells/well. MDA-MB-231 cells were cultured in DMEM media supplemented with 10% fetal bovine serum, penicillin and streptomycin, and were plated in white walled 96-well plates at 10,000 cells/well. Cells were treated with compound or DMSO (0.1%, control) and the cultures were incubated for 3 days at 37° C. and 5% CO2. Following the incubation period, 100 μL of CellTiterGlow (CTG) reagent (CellTiter-Glo® Luminescent Cell Viability Assay, Promega (Madison, Wis.)) was added to each well. Following a 10 min incubation with shaking, luminescence was measured using a Victor Wallac Luminometer.
# H1048 cells = experiment: H1048 cell viability (CellTiter-Glo); assay type: cell-based; details: Homo sapiens, NCI-H1048, 72 h, H1048, 3 days, DMSO = 100.00; for viability at 1 µM: 1 μM compound concentration; for viability at 10 µM: 10 μM compound concentration
# Procedure: FIG. 10A is a graph showing antiproliferative activity in H1048 (SCLC) cells. FIG. 10B is a graph showing antiproliferative activity in Molm-13 (AML) cells. In FIGS. 10A and 10B, the cells were incubated for 72 hrs with Compound 9 at the indicated concentrations or DMSO. Compound activity was measured based on the signal from remaining viable cells.
# as §1
# Molm-13 cells = experiment: Molm-13 cell viability (CellTiter-Glo); assay type: cell-based; details: Homo sapiens, MOLM-13, read-out: % Inhibition (MOLM-13 Cell Viability); for cytotoxicity at 10 µM: compound concentration 10 μM
# Summary of the method: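 Molm-13 (RPMI-1640, 10% FBS) and H1048 (DMEM:F12, 5% FBS with supplements) plated at 20,000 cells/well, treated with compound or 0.1% DMSO for 3 days at 37° C., 5% CO2. Viability read by CellTiter-Glo luminescence after 10 min.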
# IL-6 = IL-6 expression in LPS stimulated PBMCs (Meso Scale); assay type: cell-based, human; details: Homo sapiens, PBMC, LPS-stimulated PBMCs; for inhibition at 1 µM: compound concentration 1 μM; for inhibition at 0.1 µM: compound concentration 0.1 μM
# Summary of the method: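 Thawed human PBMCs at 200,000 cells/well in RPMI-1640/10% FBS were pretreated with compound or DMSO for 1 h, then stimulated with 100 ng/mL LPS for 18–24 h. Supernatant IL-6 was measured by Meso Scale assay and expressed as % of LPS-induced activity.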
# IL-1β = IL-1β expression in LPS stimulated PBMCs (Meso Scale); assay type: cell-based, human; details: Homo sapiens, PBMC; for inhibition at 1 µM: compound concentration 1 μM; for inhibition at 0.1 µM: compound concentration 0.1 μM
# Summary of the method: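 Human PBMCs (200,000 cells/well in RPMI-1640/10% FBS) were pretreated with compound for 1 h, then stimulated with 100 ng/mL LPS for 18-24 h. IL-1β in supernatant was measured by Meso Scale assay. Activity is expressed as percentage of LPS-induced level, with DMSO-treated wells as negative control.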
# IL-2 = experiment: anti-CD3-induced IL-2 secretion in PBMCs; assay type: cell-based; details: Homo sapiens, PBMC, anti-CD3 stimulated PBMCs, 24 h, DMSO = 1.0, read-out: Fold Change IL-2; for fold induction at 1 µM: compound concentration 1 μM; for fold induction at 0.1 µM: compound concentration 0.1 μM
# Procedure: FIGS. 4 and 9D are graphs showing anti-CD3-induced IL-2 secretion in PBMCs. 1 ug/mL anti-CD3 (OKT-3) antibody in PBS were coated onto 96-well plates overnight at 4° C. Approximately 550,000 PBMCs were added to each well, followed by addition of DMSO only, Compound 1-8 at 10 μM (FIG. 4) or Compound 9 at 0.1 μM or 1 μM (FIG. 9D), or 10 μM lenalidomide (rev). Induction was measured after 24 h as fold difference from the DMSO stimulated control.
# For the IL-2 analysis, 96 well plates were precoated with 1 ug/mL anti-human CD3 antibody (OKT3, eBioscience Inc.). After washing with PBS, compounds were added to the wells (50 μL/well) followed by PBMCs diluted at 3-4 million cells/mL (150 μL/well). Plates were incubated for 24 h and the supernatants collected for Mesoscale IL-2 analysis.
# Compound activity was measured as fold difference from the DMSO control. IL-1-beta activity is shown in FIG. 1; IL-6 activity is shown in FIG. 2; TNF-α activity is shown in FIG. 3; and IL-2 activity is shown in FIG. 4.
# GSPT1 = target: T1, GSPT1 (Homo sapiens, UniProt P15170); experiment: GSPT1 protein levels by Western Blot analysis; assay type: cell-based; details: DMSO = 100.00; for remaining activity at 0.1 µM: 100 nM compound concentration; for remaining activity at 1 µM: 1 μM compound concentration
# T1 construct: Whole cell extracts were prepared using RIPA buffer according to manufacturer's protocol (Pierce); endogenous in cells
# Procedure: Cells were lysed using RIPA Buffer (Pierce) and a Western Blot analysis was performed using anti-GSPT1 and anti-β-actin antibodies. FIG. 11B is a graph showing the expression levels of GSPT1 protein in Molm-13 (AML) cells. Protein expression levels were measured using the LiCor Odyssey instrumentation and methods.
# Western Blot Protocol: Cell lines were grown in RPMI 1640 supplemented with streptomycin, penicillin and 10% fetal bovine serum.
# Cells were cultured at approximately 10^6 cells per mL and incubated in DMSO or each of the indicated compounds for 6-8 h. Whole cell extracts were prepared using RIPA buffer according to manufacturer's protocol (Pierce). Briefly, 2×10^6 cells were washed once in PBS, the cell pellets were resuspended in RIPA buffer and allowed to incubate for 15 minutes on ice. Cells debris was removed by centrifugation and the cleared whole cell lysates were transferred to new tubes for further analysis.
# For Western blot analysis, whole cell protein extracts were separated on 4-12% SDS-polyacrylamide gels, transferred to nitrocellulose, and probed with the indicated primary antibodies. Membranes were subsequently washed and probed with the appropriate IRDye secondary antibodies (LI-COR). The signal was detected using the Odyssey Imaging System (LI-COR).
# GSPT1: Rabbit anti-GSPT1 was obtained from Abcam, ab126090 (Cambridge, Eng.)
# TNF-α = TNF-α expression in LPS stimulated PBMCs (Meso Scale); assay type: cell-based, human; details: Homo sapiens, PBMC; for inhibition at 1 µM: compound concentration 1 μM; for inhibition at 0.1 µM: compound concentration 0.1 μM
# Summary of the method: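 Thawed primary human PBMCs, 200,000 cells/well in RPMI-1640/10% FBS, pretreated with compound 1 h, then stimulated with 100 ng/mL LPS for 18-24 h. Supernatant TNF-α measured by Meso Scale assay; activity expressed as percentage of LPS-induced level, DMSO as negative control.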
# T1 sequence (P15170 whole entry): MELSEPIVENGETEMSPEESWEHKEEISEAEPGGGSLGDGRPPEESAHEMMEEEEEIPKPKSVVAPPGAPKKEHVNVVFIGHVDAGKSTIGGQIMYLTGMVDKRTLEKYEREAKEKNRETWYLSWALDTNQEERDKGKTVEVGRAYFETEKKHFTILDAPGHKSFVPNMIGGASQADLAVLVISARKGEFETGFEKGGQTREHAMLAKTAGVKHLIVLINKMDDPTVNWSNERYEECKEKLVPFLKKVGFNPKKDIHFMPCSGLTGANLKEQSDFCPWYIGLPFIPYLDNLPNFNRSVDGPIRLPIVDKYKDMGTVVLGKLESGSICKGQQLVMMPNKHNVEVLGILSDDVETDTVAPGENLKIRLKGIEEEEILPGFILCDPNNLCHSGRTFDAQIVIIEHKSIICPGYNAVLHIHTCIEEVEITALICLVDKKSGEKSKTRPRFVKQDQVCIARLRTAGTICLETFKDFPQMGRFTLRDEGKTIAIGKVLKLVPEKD
# T1 sequence (Q96SW2 whole entry, further chain): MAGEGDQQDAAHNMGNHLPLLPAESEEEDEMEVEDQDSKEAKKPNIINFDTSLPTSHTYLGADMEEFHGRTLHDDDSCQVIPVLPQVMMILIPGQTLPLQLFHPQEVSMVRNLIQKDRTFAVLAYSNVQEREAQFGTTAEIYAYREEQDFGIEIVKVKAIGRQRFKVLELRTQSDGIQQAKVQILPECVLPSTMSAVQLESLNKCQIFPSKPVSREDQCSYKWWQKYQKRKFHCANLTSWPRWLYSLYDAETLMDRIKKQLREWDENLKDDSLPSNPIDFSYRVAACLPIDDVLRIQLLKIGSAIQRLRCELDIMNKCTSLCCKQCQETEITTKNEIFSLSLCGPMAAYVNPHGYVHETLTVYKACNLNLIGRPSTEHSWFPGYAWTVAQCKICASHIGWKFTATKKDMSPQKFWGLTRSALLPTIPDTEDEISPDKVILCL
# T1 sequence (Q16531 whole entry partner): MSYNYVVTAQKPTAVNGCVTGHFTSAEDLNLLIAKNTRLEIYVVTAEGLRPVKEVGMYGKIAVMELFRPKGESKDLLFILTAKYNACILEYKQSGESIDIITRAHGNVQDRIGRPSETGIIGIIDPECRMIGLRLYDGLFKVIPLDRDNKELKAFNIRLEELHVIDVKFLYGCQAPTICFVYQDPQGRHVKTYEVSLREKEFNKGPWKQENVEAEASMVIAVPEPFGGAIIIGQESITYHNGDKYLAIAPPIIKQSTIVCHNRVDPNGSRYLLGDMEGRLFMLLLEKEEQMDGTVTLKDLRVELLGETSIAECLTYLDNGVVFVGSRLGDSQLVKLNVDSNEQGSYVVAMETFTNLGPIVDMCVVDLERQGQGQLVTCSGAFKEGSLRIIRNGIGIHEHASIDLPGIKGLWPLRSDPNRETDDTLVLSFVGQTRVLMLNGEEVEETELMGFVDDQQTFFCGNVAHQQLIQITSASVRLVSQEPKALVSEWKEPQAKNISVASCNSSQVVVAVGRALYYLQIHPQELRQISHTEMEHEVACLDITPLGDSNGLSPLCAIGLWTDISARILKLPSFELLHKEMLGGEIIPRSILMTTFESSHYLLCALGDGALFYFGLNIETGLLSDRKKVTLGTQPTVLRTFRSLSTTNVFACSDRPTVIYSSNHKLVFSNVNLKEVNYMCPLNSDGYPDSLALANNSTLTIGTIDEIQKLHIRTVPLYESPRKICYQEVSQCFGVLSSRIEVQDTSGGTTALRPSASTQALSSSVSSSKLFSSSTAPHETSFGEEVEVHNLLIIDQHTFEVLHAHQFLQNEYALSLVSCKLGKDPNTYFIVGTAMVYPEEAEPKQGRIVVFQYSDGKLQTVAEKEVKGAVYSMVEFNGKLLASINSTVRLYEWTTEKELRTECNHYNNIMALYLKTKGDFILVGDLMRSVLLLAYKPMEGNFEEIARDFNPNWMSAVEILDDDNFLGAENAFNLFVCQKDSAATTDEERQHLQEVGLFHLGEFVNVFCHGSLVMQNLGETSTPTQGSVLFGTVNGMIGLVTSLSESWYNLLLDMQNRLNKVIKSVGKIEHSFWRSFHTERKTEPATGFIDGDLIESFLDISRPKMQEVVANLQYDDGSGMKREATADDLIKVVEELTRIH
Structure (SMILES),viability at 1 µM (MDA-MB-231 cells) [%],viability at 10 µM (MDA-MB-231 cells) [%],viability at 1 µM (H1048 cells) [%],viability at 10 µM (H1048 cells) [%],cytotoxicity at 1 µM (Molm-13 cells; compound concentration 1 μM) [%],inhibition at 1 µM (IL-6) [%],inhibition at 1 µM (IL-1β) [%],fold induction at 1 µM (IL-2),remaining activity at 0.1 µM (GSPT1) [%],remaining activity at 1 µM (GSPT1) [%],inhibition at 1 µM (TNF-α) [%],cytotoxicity at 10 µM (Molm-13 cells) [%],cytotoxicity at 0.5 µM (Molm-13 cells; compound concentration 0.5 μM) [%],inhibition at 0.1 µM (IL-6) [%],inhibition at 0.1 µM (IL-1β) [%],fold induction at 0.1 µM (IL-2),inhibition at 0.1 µM (TNF-α) [%],cytotoxicity at 0.003 µM (Molm-13 cells; compound concentration 0.003 μM) [%]
"Cc1ccc(NC(=O)NCc2scc3c2CN([C@H]2CCCC(=O)NC2=O)C3=O)cc1Cl [Compound 30, (S)-1-(3-Chloro-4-methylphenyl)-3-((5-(2,7-dioxoazepan-3-yl)-4-oxo-5,6-dihydro-4H-thieno[3,4-c]pyrrol-1-yl)methyl)urea]",52.9,26.3,8.55,8.34,50,98,81,0.4,42.7,5.28,84,–,–,–,–,–,–,–
"Cc1ccc(CC(=O)NCc2scc3c2CN([C@H]2CCCC(=O)NC2=O)C3=O)cc1Cl [Compound 31, (S)-2-(3-Chloro-4-methylphenyl)-N-((5-(2,7-dioxoazepan-3-yl)-4-oxo-5,6-dihydro-4H-thieno[3,4-c]pyrrol-1-yl)methyl)acetamide]",103,107,84.3,26.8,–,40,76,1.7,131,108,80,12,–,–,–,–,–,–
"O=C1CCC[C@H](N2Cc3c(csc3CNC(=O)Nc3ccc(C(F)(F)F)c(Cl)c3)C2=O)C(=O)N1 [Compound 32, (S)-1-(3-Chloro-4-(trifluoromethyl)phenyl)-3-((5-(2,7-dioxoazepan-3-yl)-4-oxo-5,6-dihydro-4H-thieno[3,4-c]pyrrol-1-yl)methyl)urea]",91.2,44.3,10.6,10.8,–,–,–,–,61.7,29.3,–,–,25,65,67,0.8,62,–
"Cc1ccc(CNC(=O)NCc2scc3c2CN(C2CCC(=O)NC2=O)C3=O)cc1Cl (stereo not shown) [Compound 33, 1-(3-Chloro-4-methylbenzyl)-3-((5-(2,6-dioxopiperidin-3-yl)-4-oxo-5,6-dihydro-4H-thieno[3,4-c]pyrrol-1-yl)methyl)urea]",21.7,19.8,8.76,8.21,–,–,–,–,5.9,5.5,–,–,–,99,95,0.3,95,50
"Cc1ccc(CNC(=O)NCc2scc3c2CN([C@H]2CCCC(=O)NC2=O)C3=O)cc1Cl [Compound 34, (S)-1-(3-Chloro-4-methylbenzyl)-3-((5-(2,7-dioxoazepan-3-yl)-4-oxo-5,6-dihydro-4H-thieno[3,4-c]pyrrol-1-yl)methyl)urea]",102,44.4,12.9,8.34,–,39,70,1.6,84.9,37.5,69,99,–,–,–,–,–,–
"Cc1ccc(NC(=O)NCc2cc3c(s2)C(=O)N([C@H]2CCCC(=O)NC2=O)C3)cc1Cl [Compound 35, (S)-1-(3-Chloro-4-methylphenyl)-3-((5-(2,7-dioxoazepan-3-yl)-6-oxo-5,6-dihydro-4H-thieno[2,3-c]pyrrol-2-yl)methyl)urea]",99,64.8,15.5,12.4,–,16,44,1.4,112,44.5,39,93,–,–,–,–,–,–
"Cc1cc(C)c(NC(=O)NCc2scc3c2CN([C@H]2CCCC(=O)NC2=O)C3=O)cc1Cl [Compound 36, (S)-1-(5-Chloro-2,4-dimethylphenyl)-3-((5-(2,7-dioxoazepan-3-yl)-4-oxo-5,6-dihydro-4H-thieno[3,4-c]pyrrol-1-yl)methyl)urea]",101,53.4,10.6,7.51,–,38,40,0.8,92.9,32.6,33,100,–,–,–,–,–,–
"Cc1ccc(NC(=O)NCc2scc3c2CN([C@H]2CCCC(=O)NC2=O)C3=O)cn1 [Compound 37, (S)-1-((5-(2,7-Dioxoazepan-3-yl)-4-oxo-5,6-dihydro-4H-thieno[3,4-c]pyrrol-1-yl)methyl)-3-(6-methylpyridin-3-yl)urea]",106,97.7,55,10.5,–,3,4,1.1,124,154,6,51,–,–,–,–,–,–
